Experimental data published in PubChem BioAssay (NCI).
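How tested: cells in 96-well plates exposed to compound for 48 hours at five concentrations. GI50: concentration for 50% inhibition of growth. TGI marks complete inhibition of growth.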

Assays:
Experiment in all cases: NCI tumour cell line growth inhibition, 48 h
RXF 393 renal = tested on: RXF 393 renal
PC-3 prostate = tested on: PC-3 prostate
M14 melanoma = tested on: M14 melanoma
SR leukemia = tested on: SR leukemia
SF-295 CNS = tested on: SF-295 CNS
MOLT-4 leukemia = tested on: MOLT-4 leukemia
HCT-15 colon = tested on: HCT-15 colon
U251 CNS = tested on: U251 CNS
HCT-116 colon = tested on: HCT-116 colon
OVCAR-8 ovarian = tested on: OVCAR-8 ovarian
SK-OV-3 ovarian = tested on: SK-OV-3 ovarian
786-0 renal = tested on: 786-0 renal
KM12 colon = tested on: KM12 colon
RPMI-8226 leukemia = tested on: RPMI-8226 leukemia
MCF7 breast = tested on: MCF7 breast
SF-268 CNS = tested on: SF-268 CNS
NCI-H460 lung = tested on: NCI-H460 lung
A549 NSCLC = tested on: A549 NSCLC
UACC-257 melanoma = tested on: UACC-257 melanoma
OVCAR-5 ovarian = tested on: OVCAR-5 ovarian
COLO 205 colon = tested on: COLO 205 colon
OVCAR-4 ovarian = tested on: OVCAR-4 ovarian
TK-10 renal = tested on: TK-10 renal
HT29 colon = tested on: HT29 colon
MDA-MB-435 = tested on: MDA-MB-435
SNB-75 CNS = tested on: SNB-75 CNS
NCI/ADR-RES ovarian = tested on: NCI/ADR-RES ovarian
DU-145 prostate = tested on: DU-145 prostate
MDA-MB-231 breast = tested on: MDA-MB-231 breast
NCI-H522 lung = tested on: NCI-H522 lung
UO-31 renal = tested on: UO-31 renal
SW-620 colon = tested on: SW-620 colon
HL-60(TB) leukemia = tested on: HL-60(TB) leukemia
OVCAR-3 ovarian = tested on: OVCAR-3 ovarian
SNB-19 CNS = tested on: SNB-19 CNS
SK-MEL-5 melanoma = tested on: SK-MEL-5 melanoma
HOP-92 NSCLC = tested on: HOP-92 NSCLC
HOP-62 NSCLC = tested on: HOP-62 NSCLC
NCI-H23 lung = tested on: NCI-H23 lung
EKVX NSCLC = tested on: EKVX NSCLC
A498 renal = tested on: A498 renal
SK-MEL-2 melanoma = tested on: SK-MEL-2 melanoma
SF-539 CNS = tested on: SF-539 CNS
ACHN renal = tested on: ACHN renal
MALME-3M melanoma = tested on: MALME-3M melanoma
HS 578T breast = tested on: HS 578T breast
NCI-H226 lung = tested on: NCI-H226 lung
BT-549 breast = tested on: BT-549 breast
T-47D breast = tested on: T-47D breast
HCC-2998 colon = tested on: HCC-2998 colon
CAKI-1 renal = tested on: CAKI-1 renal
UACC-62 melanoma = tested on: UACC-62 melanoma
SN12C renal = tested on: SN12C renal
SK-MEL-28 melanoma = tested on: SK-MEL-28 melanoma
LOX IMVI melanoma = tested on: LOX IMVI melanoma
IGROV1 ovarian = tested on: IGROV1 ovarian
CCRF-CEM leukemia = tested on: CCRF-CEM leukemia
K-562 leukemia = tested on: K-562 leukemia

N[C@]1(C(=O)O)C[C@@H]2C(Br)=NO[C@@H]2C1
TGI (RXF 393 renal): > 100 µM | TGI (PC-3 prostate): > 100 µM | TGI (M14 melanoma): > 100 µM | TGI (SR leukemia): > 100 µM | TGI (SF-295 CNS): > 100 µM | TGI (MOLT-4 leukemia): > 100 µM | TGI (HCT-15 colon): > 100 µM | TGI (U251 CNS): > 100 µM | TGI (HCT-116 colon): > 100 µM | TGI (OVCAR-8 ovarian): > 100 µM | TGI (SK-OV-3 ovarian): > 100 µM | TGI (786-0 renal): > 100 µM | TGI (KM12 colon): > 100 µM | TGI (RPMI-8226 leukemia): > 100 µM | TGI (MCF7 breast): > 100 µM | TGI (SF-268 CNS): > 100 µM | TGI (NCI-H460 lung): > 100 µM | TGI (A549 NSCLC): > 100 µM | TGI (UACC-257 melanoma): > 100 µM | TGI (OVCAR-5 ovarian): > 100 µM | TGI (COLO 205 colon): > 100 µM | TGI (OVCAR-4 ovarian): > 100 µM | TGI (TK-10 renal): > 100 µM | TGI (HT29 colon): > 100 µM | TGI (MDA-MB-435): > 100 µM | TGI (SNB-75 CNS): > 100 µM | TGI (NCI/ADR-RES ovarian): > 100 µM | TGI (DU-145 prostate): > 100 µM | TGI (MDA-MB-231 breast): > 100 µM | TGI (NCI-H522 lung): > 100 µM | TGI (UO-31 renal): > 100 µM | TGI (SW-620 colon): > 100 µM | TGI (HL-60(TB) leukemia): > 100 µM | TGI (OVCAR-3 ovarian): > 100 µM | TGI (SNB-19 CNS): > 100 µM | TGI (SK-MEL-5 melanoma): > 100 µM | TGI (HOP-92 NSCLC): > 100 µM | TGI (HOP-62 NSCLC): > 100 µM | TGI (NCI-H23 lung): > 100 µM | TGI (EKVX NSCLC): > 100 µM | TGI (A498 renal): > 100 µM | TGI (SK-MEL-2 melanoma): > 100 µM | TGI (SF-539 CNS): > 100 µM | TGI (ACHN renal): > 100 µM | TGI (MALME-3M melanoma): > 100 µM | TGI (HS 578T breast): > 100 µM | TGI (NCI-H226 lung): > 100 µM | TGI (BT-549 breast): > 100 µM | TGI (T-47D breast): > 100 µM | TGI (HCC-2998 colon): > 100 µM | TGI (CAKI-1 renal): > 100 µM | TGI (UACC-62 melanoma): > 100 µM

CCn1c(=O)c(Oc2ccc(F)cc2F)cc2cnc(NC3CCOCC3)nc21
GI50 (RXF 393 renal): > 18.7 µM | TGI (RXF 393 renal): > 25 µM | GI50 (PC-3 prostate): > 25 µM | TGI (PC-3 prostate): > 25 µM | GI50 (M14 melanoma): > 25 µM | TGI (M14 melanoma): > 25 µM | GI50 (SR leukemia): > 25 µM | TGI (SR leukemia): > 25 µM | GI50 (SF-295 CNS): > 25 µM | TGI (SF-295 CNS): > 25 µM | GI50 (MOLT-4 leukemia): > 25 µM | TGI (MOLT-4 leukemia): > 25 µM | GI50 (HCT-15 colon): > 25 µM | TGI (HCT-15 colon): > 25 µM | GI50 (U251 CNS): > 25 µM | TGI (U251 CNS): > 25 µM | GI50 (HCT-116 colon): > 25 µM | TGI (HCT-116 colon): > 25 µM | GI50 (OVCAR-8 ovarian): > 25 µM | TGI (OVCAR-8 ovarian): > 25 µM | GI50 (SK-OV-3 ovarian): > 25 µM | TGI (SK-OV-3 ovarian): > 25 µM | GI50 (786-0 renal): > 25 µM | TGI (786-0 renal): > 25 µM | GI50 (KM12 colon): > 25 µM | TGI (KM12 colon): > 25 µM | GI50 (RPMI-8226 leukemia): > 25 µM | TGI (RPMI-8226 leukemia): > 25 µM | GI50 (MCF7 breast): > 25 µM | TGI (MCF7 breast): > 25 µM | GI50 (SF-268 CNS): > 25 µM | TGI (SF-268 CNS): > 25 µM | GI50 (SN12C renal): > 25 µM | TGI (SN12C renal): > 25 µM | GI50 (NCI-H460 lung): > 25 µM | TGI (NCI-H460 lung): > 25 µM | GI50 (A549 NSCLC): > 25 µM | TGI (A549 NSCLC): > 25 µM | GI50 (UACC-257 melanoma): > 25 µM | TGI (UACC-257 melanoma): > 25 µM | GI50 (OVCAR-5 ovarian): > 25 µM | TGI (OVCAR-5 ovarian): > 25 µM | GI50 (COLO 205 colon): > 25 µM | TGI (COLO 205 colon): > 25 µM | GI50 (OVCAR-4 ovarian): > 25 µM | TGI (OVCAR-4 ovarian): > 25 µM | GI50 (TK-10 renal): 19.7 µM | TGI (TK-10 renal): > 25 µM | GI50 (HT29 colon): > 25 µM | TGI (HT29 colon): > 25 µM | GI50 (MDA-MB-435): > 25 µM | TGI (MDA-MB-435): > 25 µM | GI50 (SNB-75 CNS): > 25 µM | TGI (SNB-75 CNS): > 25 µM | GI50 (NCI/ADR-RES ovarian): > 25 µM | TGI (NCI/ADR-RES ovarian): > 25 µM | GI50 (DU-145 prostate): > 25 µM | TGI (DU-145 prostate): > 25 µM | GI50 (MDA-MB-231 breast): > 25 µM | TGI (MDA-MB-231 breast): > 25 µM | GI50 (NCI-H522 lung): > 25 µM | TGI (NCI-H522 lung): > 25 µM | GI50 (UO-31 renal): 5.47 µM | TGI (UO-31 renal): > 15.2 µM | GI50 (SW-620 colon): > 25 µM | TGI (SW-620 colon): > 25 µM | GI50 (HL-60(TB) leukemia): > 14.1 µM | TGI (HL-60(TB) leukemia): > 25 µM | GI50 (OVCAR-3 ovarian): > 25 µM | TGI (OVCAR-3 ovarian): > 25 µM | GI50 (SNB-19 CNS): > 25 µM | TGI (SNB-19 CNS): > 25 µM | GI50 (SK-MEL-28 melanoma): > 25 µM | TGI (SK-MEL-28 melanoma): > 25 µM | GI50 (SK-MEL-5 melanoma): > 25 µM | TGI (SK-MEL-5 melanoma): > 25 µM | GI50 (HOP-92 NSCLC): 3.19 µM | TGI (HOP-92 NSCLC): > 25 µM | GI50 (HOP-62 NSCLC): > 25 µM | TGI (HOP-62 NSCLC): > 25 µM | GI50 (NCI-H23 lung): > 25 µM | TGI (NCI-H23 lung): > 25 µM | GI50 (A498 renal): 6.94 µM | TGI (A498 renal): > 25 µM | GI50 (SK-MEL-2 melanoma): > 25 µM | TGI (SK-MEL-2 melanoma): > 25 µM | GI50 (SF-539 CNS): > 25 µM | TGI (SF-539 CNS): > 25 µM | GI50 (ACHN renal): > 25 µM | TGI (ACHN renal): > 25 µM | GI50 (LOX IMVI melanoma): > 25 µM | TGI (LOX IMVI melanoma): > 25 µM | GI50 (MALME-3M melanoma): > 25 µM | TGI (MALME-3M melanoma): > 25 µM | GI50 (HS 578T breast): > 16.4 µM | TGI (HS 578T breast): > 25 µM | GI50 (NCI-H226 lung): > 25 µM | TGI (NCI-H226 lung): > 25 µM | GI50 (IGROV1 ovarian): > 25 µM | TGI (IGROV1 ovarian): > 25 µM | GI50 (BT-549 breast): > 25 µM | TGI (BT-549 breast): > 25 µM | GI50 (T-47D breast): > 25 µM | TGI (T-47D breast): > 25 µM | GI50 (CCRF-CEM leukemia): > 25 µM | TGI (CCRF-CEM leukemia): > 25 µM | GI50 (HCC-2998 colon): > 25 µM | TGI (HCC-2998 colon): > 25 µM | GI50 (CAKI-1 renal): > 25 µM | TGI (CAKI-1 renal): > 25 µM | GI50 (K-562 leukemia): > 25 µM | TGI (K-562 leukemia): > 25 µM | GI50 (UACC-62 melanoma): > 25 µM | TGI (UACC-62 melanoma): > 25 µM
